From patent US20240293557A1, “PROTEOLYSIS TARGETING CHIMERAS AND METHODS OF USE THEREOF” (University of Maryland, Baltimore, priority 2021, published 2024)
“Also recorded” adds a separate entry of the source. Where two headings read alike, the source gives them in different places.

Legend:
[1] = target: CDK9 (Homo sapiens (Human), UniProt P50750); assay: CDK9 activity assay (Nanosyn microfluidics mobility shift platform); type: biochemical
Procedure: CDK9 activity assays were performed by Nanosyn using a microfluidics mobility shift platform. In this assay, a fluorescently labeled substrate is incubated with the enzyme in the presence of test compounds. Samples are run through microfluidic chips, separating them based on differences in charge; this separates the more positive substrate from the more negative product. Enzyme activity is measured through comparison of the fluorescence from substrate and product peaks.

[2] = test system: MOLM14 cells; assay: alamarBlue cell viability assay of MOLM14 cells; type: cell-based; conditions: Homo sapiens, MOLM-14
Procedure: In vitro evaluations. All 36 PROTACs are evaluated in the relevant kinase assays, and those with Ki values >10-fold weaker than the parent drug are not advanced further. […] Next, the IC50s of lead indirect MCL-1 PROTACs are determined by alamarBlue cell viability assays of four human AML cell lines.
Both MOLM14 and MV4;11 AML cell lines are relatively sensitive to VEN in vitro; harbor a FLT3-ITD mutation plus an MLL rearrangement, two relatively common poor-prognosis AML mutations (both cells lines also contain additional mutations); and are dependent on MCL-1 and BCL-2, and express relatively high levels of both. In addition, both MOLM14 and MV4;11 are sensitive to CDK9 inhibitors, PI3K/mTOR inhibitors and MEK inhibitors. […] Three repeats of each IC50 determination assay are performed for each compound against each of these four AML cell lines. Multiple compounds are tested against all four AML cell lines at once, using alamarBlue microplate assays previously described. Specifically, cell lines are treated with vehicle (negative control), PROTAC alone, parent (non-PROTAC) drug alone, VEN alone, the combination of parent drug+VEN, and the combination of PROTAC+VEN, each at multiple concentrations, and IC50s in the AML cell lines determined. […] Western blotting is conducted after treatment of cells with the active PROTACs to determine if dose-dependent reduction of MCL-1 and CDK9 or PI3K/mTOR or MEK proteins is observed.
Cell viability of MOLM14 cells was measured in presence of test compounds via alamarBlue assay. This is a colorimetric assay that uses resazurin, a reduction-oxidation indicator. After incubation, resazurin is added to the test wells. The reduced form of resazurin is resorufin, which is pink and highly fluorescent. This can be measured through absorbance or fluorescence and is proportional to the amount of living cells.

[3] = test system: MOLM14 MCL1 OE cloned cell lines; assay: 48 h alamarBlue cell viability assay of MOLM14 MCL1 OE cloned cell lines; type: cell-based, human; conditions: MOLM14 MCL1 OE cloned cell lines vs control cell lines
Excerpt: Method: OLM14 AML cell were lentivirally transduced to overexpress MCL1. […] MOLM14 AML cells were transduced with lentiviral expression vector (LV) pWCC43 backbone containing EF1a—driven GFP and Ubiquitin (Ub)-driven MCL1, or control empty LV without MCL1, or control LV containing Luc in place of MCL1, and then single-cell subcloned.

[4] = test system: Luc-labelled MOLM14 AML cells; assay: Luc-labelled MOLM14 AML xenograft in NRG mice, venetoclax monotherapy or combinations; type: in vivo, mouse; conditions: MOLM14 AML-bearing NRG mice; for AML burden (fold-change total body luminescence vs d0): two 5 d treatment cycles (d1-5, d21-25), imaging d7/d14/d21, vs vehicle
Procedure: Next, these two compounds are tested at their MTD(s) in a 5 d schedule that utilized to evaluate VEN-based combinations against a luciferase (Luc)-labelled MOLM14 human AML cell line xenograft model. NRG mice are infused with Luc-labelled MOLM14 AML cells on day -10. After Xenogen quantification of baseline total body luminescence on d0, mice are placed into experimental groups balanced for AML burden. Each experiment to evaluate the two selected indirect MCL-1 PROTACs in vivo involves 10 groups of 5 MOLM14 AML-bearing mice treated with: (1) vehicle, (2-3) lead PROTACs, (4-5) corresponding parent drugs, (6) VEN, (7-8) corresponding parent drugs+VEN and (9-10) lead PROTACs+VEN. […] and VEN are administered at the same molar concentration as the novel PROTACs; additional control groups are needed if the MTDs of the two PROTACs differ. MOLM14 AML-bearing NRG mice are dosed daily PO on dl-5 and d21-25, assessed for AML burden by Xenogen imaging on d7, d14, and d21, and monitored until clinical signs dictate need for euthanasia (projected average 10 weeks). Primary response endpoints are AML response quantitation (fold-change in AML burden on d7/14/21 vs d0 for each mouse) via imaging. Comparisons of quantitative imaging results are confirmed by Kaplan-Meier survival analyses. In addition, the two selected PROTACs are similarly tested against a Luc-labelled MV4;11 cell line xenograft model. […]
Thus, the proposed sample size (5 mice/group) is expected to provide sufficient power for statistical analyses (at p<0.05 level; α=0.05, β=0.1), which is estimated with the standard deviation of AML burden over time monitored and the expected drug efficacy differences. […] AML burden is quantified using log transformed ratio of luminescence at d7/14/21 vs d0 for each mouse (fold-change); groups are compared using the appropriate parametric (ANOVA; t-test, etc) or non-parametric alternative as necessary (Wilcoxon rank sum, Kruskal-Wallis). […]
Two of the parent drug candidates are synthesized but the syntheses are published and short. […] The indirect MCL-1 PROTAC candidates are evaluated in the kinase assays as they are synthesized. […] On d0, after Xenogen quantification of baseline total body luminescence (AML burden), groups of 5 AML-bearing mice were treated on days 1-5, per a previously established MTD POx5d schedule, with VEN (150 mg/kg/d POx5), as monotherapy or co-administered with SOR (30 mg/kg/d POx5), ART (50 mg/kg/d POx5), and/or ASP (2001U/kg IP single dose). […] On d7, d14 and d21, each mouse was Xenogen imaged for total body luminescence, fold-change AML burden from d0 was calculated for each mouse, and mean (+/−SD) fold-change for each experimental group plotted. […]

[5] = MOLM14, 48 hr, read-out: Cell Viability (MOLM14 IC50-nM) 48 hr
[6] = MOLM14, 72 hr, read-out: Cell Viability (MOLM14 IC50-nM) 72 hr

CDK9, sequence (P50750 whole entry): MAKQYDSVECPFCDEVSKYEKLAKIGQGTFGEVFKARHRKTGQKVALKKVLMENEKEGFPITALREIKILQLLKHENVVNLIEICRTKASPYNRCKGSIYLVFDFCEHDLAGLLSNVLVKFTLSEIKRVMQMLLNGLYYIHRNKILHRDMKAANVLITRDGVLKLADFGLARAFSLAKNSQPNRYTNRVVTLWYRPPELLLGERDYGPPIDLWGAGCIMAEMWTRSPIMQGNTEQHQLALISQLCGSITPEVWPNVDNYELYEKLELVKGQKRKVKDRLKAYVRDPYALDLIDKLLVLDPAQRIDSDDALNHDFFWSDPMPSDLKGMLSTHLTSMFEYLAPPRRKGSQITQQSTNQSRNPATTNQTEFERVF
CDK9, sequence (O60563 whole entry partner): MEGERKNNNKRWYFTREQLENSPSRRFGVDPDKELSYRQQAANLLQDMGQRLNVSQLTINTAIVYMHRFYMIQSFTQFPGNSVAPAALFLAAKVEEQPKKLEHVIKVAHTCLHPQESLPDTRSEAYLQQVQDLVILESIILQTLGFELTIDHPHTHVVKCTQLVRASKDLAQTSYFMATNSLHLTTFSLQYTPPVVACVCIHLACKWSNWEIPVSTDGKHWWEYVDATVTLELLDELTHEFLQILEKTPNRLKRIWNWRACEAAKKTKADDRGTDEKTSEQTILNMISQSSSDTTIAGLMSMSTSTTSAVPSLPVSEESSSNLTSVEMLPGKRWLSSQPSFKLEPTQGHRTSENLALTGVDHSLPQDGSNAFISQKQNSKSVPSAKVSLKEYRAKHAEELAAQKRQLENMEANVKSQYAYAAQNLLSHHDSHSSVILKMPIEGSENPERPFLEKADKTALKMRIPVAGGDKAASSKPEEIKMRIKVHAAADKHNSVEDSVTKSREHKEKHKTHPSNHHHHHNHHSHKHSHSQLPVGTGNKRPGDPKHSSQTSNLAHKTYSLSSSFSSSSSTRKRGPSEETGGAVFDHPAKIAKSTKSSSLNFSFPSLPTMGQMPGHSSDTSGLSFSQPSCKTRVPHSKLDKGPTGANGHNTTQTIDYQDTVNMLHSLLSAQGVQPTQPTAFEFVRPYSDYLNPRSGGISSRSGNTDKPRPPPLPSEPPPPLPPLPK

Compound	IC50 [1] [nM]	IC50 [2, 5] [nM]	IC50 [2, 6] [nM]	Sensitivity of MCL-1 overexpressing MOLM14 clones compared to control cell lines [3]	AML burden (fold-change total body luminescence vs d0) [4]	Kaplan-Meier survival ([4]; two 5 d treatment cycles, survival to d84, vs vehicle or monotherapy)
CC(C)(C)OC(=O)CN1CCC(NC(=O)c2n[nH]cc2NC(=O)c2c(Cl)cccc2Cl)CC1 [AMC-3-086]	11	1560	1590			
CC(C)(C)OC(=O)N1CCC(NC(=O)c2n[nH]cc2NC(=O)c2c(Cl)cccc2Cl)CC1 [AMC-3-095]	11.3	1680	2010			
O=C(COc1cccc2c1C(=O)N(C1CCC(=O)NC1=O)C2=O)NCCNC(=O)CN1CCC(NC(=O)c2n[nH]cc2NC(=O)c2c(Cl)cccc2Cl)CC1 (centres unmarked) [AMC-3-097]	3.96					
O=C(NC1CCNCC1)c1n[nH]cc1NC(=O)c1c(Cl)cccc1Cl [AMC-3-098, N-(4-Piperidinyl)-4-(2,6-dichlorobenzoylamino)-1H-pyrazole-3-carboxamide, reference compound]		178	460			
O=C(COc1cccc2c1C(=O)N(C1CCC(=O)NC1=O)C2=O)NCCC(=O)N1CCC(NC(=O)c2n[nH]cc2NC(=O)c2c(Cl)cccc2Cl)CC1 (centres unmarked) [AMC-3-104]	2.82					
O=C1CCC(N2C(=O)c3cccc(OCC(=O)N4CCC(NC(=O)CN5CCC(NC(=O)c6n[nH]cc6NC(=O)c6c(Cl)cccc6Cl)CC5)CC4)c3C2=O)C(=O)N1 (centres unmarked) [AMC-3-106]	3.04	6070	8170			
O=C(COc1cccc2c1C(=O)N(C1CCC(=O)NC1=O)C2=O)NCCOCCNC(=O)CN1CCC(NC(=O)c2n[nH]cc2NC(=O)c2c(Cl)cccc2Cl)CC1 (centres unmarked) [CG-3-066]	3.32	1970	1690			
O=C(COc1cccc2c1C(=O)N(C1CCC(=O)NC1=O)C2=O)NCCOCCOCCNC(=O)CN1CCC(NC(=O)c2n[nH]cc2NC(=O)c2c(Cl)cccc2Cl)CC1 (centres unmarked) [CG-3-067]	3.89	4320	7150			
O=C(COc1cccc2c1C(=O)N(C1CCC(=O)NC1=O)C2=O)NCCCCCCC(=O)N1CCC(NC(=O)c2n[nH]cc2NC(=O)c2c(Cl)cccc2Cl)CC1 (centres unmarked) [CG-3-071]	2.85	1710	1910			
Cc1c(-c2c(-c3ccc(F)o3)sc3ncnc(O[C@H](Cc4ccccc4OCc4ccnn4CC(F)(F)F)C(=O)O)c23)ccc(OCCN2CCN(C)CC2)c1Cl [S63845]				reduced sensitivity		
O=C1CCC(N2C(=O)c3cccc(OCC(=O)N4CCC(C(=O)N5CCC(NC(=O)c6n[nH]cc6NC(=O)c6c(Cl)cccc6Cl)CC5)CC4)c3C2=O)C(=O)N1 (centres unmarked) [SF-8-140]	1.66	3000	1820			
O=C(CNC(=O)COc1cccc2c1C(=O)N(C1CCC(=O)NC1=O)C2=O)NCCCCCCC(=O)N1CCC(NC(=O)c2n[nH]cc2NC(=O)c2c(Cl)cccc2Cl)CC1 (centres unmarked) [SF-8-141]	4.49					
CNC(=O)c1cc(Oc2ccc(NC(=O)Nc3ccc(Cl)c(C(F)(F)F)c3)cc2)ccn1 [SOR, Sorafenib]					reduced AML burden only moderately; also recorded: significant difference in AML burden only at d7 and d14	
CC1(C)CCC(CN2CCN(c3ccc(C(=O)NS(=O)(=O)c4ccc(NCC5CCOCC5)c([N+](=O)[O-])c4)c(Oc4cnc5[nH]ccc5c4)c3)CC2)=C(c2ccc(Cl)cc2)C1 [VEN, venetoclax]				more resistant	no detectable effect; also recorded: minimal activity	no detectable effect
PEGylated L-asparaginase					minimal activity	
